Source: patent US6156700A, “3-(1,2-Benzisothiazol- and isoxazol-5-yl)-2,4(1H,3H)-pyrimidinedione or thione and 3-(1,2-benzisothiazol- and isoxazol-5-yl)-4(3H)-pyrimidinone or thione herbicidal agents” (American Cyanmid Company, priority 1998, dated 2000)

Columns and labels:
Details in all cases: 0.2500 kg/ha
[1] = system: Velvetleaf, Abutilon theophrasti; assay: Preemergence herbicidal evaluation, ABUTH; assay type: in vivo, Medic.
Excerpt: (§1) Results of herbicide evaluation are expressed on a rating scale (0-9). The scale is based upon a visual observation of plant stand, vigor, malformation, size, chlorosis and overall plant appearance as compared with a control.
(§2) The preemergence herbicidal activity of the test compounds of the present invention is exemplified by the following tests in which the seeds of a variety of monocotyledonous and dicotyledonous plants are separately mixed with potting soil and planted on top of approximately one inch of soil in separate pint cups. After planting, the cups are sprayed with the selected aqueous acetone solution containing test compound in sufficient quantity to provide the equivalent of about 0.0156 to 0.500 kg per hectare of test compound per cup. The treated cups are then placed on greenhouse benches, watered and cared for in accordance with conventional greenhouse procedures. From four to five weeks after treatment, the tests are terminated and each cup is examined and rated according to the rating system provided in Example 185.
(§3) The compounds evaluated are reported by compound number given in Example 185.

[2] = system: Ragweed, Common, Ambrosia artemisifolia; assay: Preemergence herbicidal evaluation, AMBEL; assay type: in vivo, L.
Excerpt: as §1, §2, §3

[3] = system: Sicklepod, Cassia obtusifolia; assay: Preemergence herbicidal evaluation, CASOB; assay type: in vivo, L.
Excerpt: as §1, §2, §3

[4] = system: Lambsquarters, Common, Chenopodium album; assay: Preemergence herbicidal evaluation, CHEAL; assay type: in vivo, L.
Excerpt: as §1, §2, §3

Galium, Galium aparine = assay: Preemergence herbicidal evaluation, GALAP; assay type: in vivo
Excerpt: as §1, §2, §3

[5] = system: Morningglory, Ivyleaf, Ipomoea hederacea; assay: Preemergence herbicidal evaluation, IPOHE; assay type: in vivo, (L.) Jacq.
Excerpt: as §1, §2, §3

[6] = system: Barnyardgrass, Echinochloa crus-galli; assay: Preemergence herbicidal evaluation, ECHCG; assay type: in vivo, (L.) Beau
Excerpt: as §1, §2, §3

[7] = system: Foxtail, Green, Setaria viridis; assay: Preemergence herbicidal evaluation, SETVI; assay type: in vivo, (L.) Beau
Excerpt: as §1, §2, §3

[8] = system: Soybean, Williams, Glycine max; assay: Preemergence herbicidal evaluation, GLXMAW; assay type: in vivo, (L.) Merr. cv Williams
Excerpt: as §1, §2, §3

[9] = system: Rice, Tebonnet, Oryza sativa; assay: Preemergence herbicidal evaluation, ORYSAT; assay type: in vivo, (L.) Tebonnet
Excerpt: as §1, §2, §3

[10] = system: Wheat, Winter, cv Riband, Triticum aestivum; assay: Preemergence herbicidal evaluation, TRZAWR; assay type: in vivo
Excerpt: as §1, §2, §3

Corn, Field, Zea mays = assay: Preemergence herbicidal evaluation, ZEAMX; assay type: in vivo, L.
Excerpt: as §1, §2, §3

Measured: herbicide rating (0-9)

COC(=O)COc1noc2ccc(-n3c(=O)cc(C(F)(F)F)n(C)c3=O)cc12 [Compound 22, Methyl {{5-[3,6-dihydro-3-methyl-2,6-dioxo-4-(trifluoromethyl)-1(2H)-pyrimidinyl]-1,2-benzisoxazol-3-yl}oxy}acetate]
1.0: Corn, Field, Zea mays
2.0: [8]
4.0: Galium, Galium aparine
9.0: [3]
0.0: all other assays above

Cc1noc2cc(F)c(-n3c(=O)cc(C(F)(F)F)n(C)c3=O)cc12 [Compound 23, 3-(6-Fluoro-3-methyl-1,2-benzisoxazol-5-yl)-1-methyl-6-(trifluoromethyl)-2,4(1H,3H)-pyrimidinedione]
9.0: all assays above
